Reference: PubChem BioAssay (NCI)
Several values for one entry are separate records, joined by “and”; a condition that tells them apart may be missing. Identical values can stand only once.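 Five concentrations, 48 hours, 96-well plates. GI50 is the concentration that inhibits growth by half. TGI: concentration producing complete growth inhibition.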

Experiments:
Test in all cases: NCI-60 cell line screen, 48 h
SNB-19 CNS = system: SNB-19 CNS
NCI-H460 lung = system: NCI-H460 lung
HT29 colon = system: HT29 colon
SK-MEL-5 melanoma = system: SK-MEL-5 melanoma
KM12 colon = system: KM12 colon
HOP-62 NSCLC = system: HOP-62 NSCLC
M14 melanoma = system: M14 melanoma
IGROV1 ovarian = system: IGROV1 ovarian
HCC-2998 colon = system: HCC-2998 colon
SK-MEL-28 melanoma = system: SK-MEL-28 melanoma

Row | Structure (SMILES) | TGI (SNB-19 CNS) | TGI (NCI-H460 lung) | TGI (HT29 colon) | TGI (SK-MEL-5 melanoma) | TGI (KM12 colon) | TGI (HOP-62 NSCLC) | TGI (M14 melanoma) | TGI (IGROV1 ovarian) | TGI (HCC-2998 colon) [µM] | TGI (SK-MEL-28 melanoma) [µM] | GI50 (SNB-19 CNS) [µM] | GI50 (NCI-H460 lung) [µM] | GI50 (HT29 colon) [µM] | GI50 (SK-MEL-5 melanoma) [µM] | GI50 (KM12 colon) [µM] | GI50 (HOP-62 NSCLC) [µM] | GI50 (M14 melanoma) [µM] | GI50 (IGROV1 ovarian) [µM] | GI50 (SK-MEL-28 melanoma) [µM] | GI50 (HCC-2998 colon) [µM]
1 | CCNC(=O)O/N=C1/C=C2CC[C@@H]3C(CC[C@@]4(C)C3CC[C@@H]4OC(=O)NCC)[C@@]2(C)CC1 (stereo partly specified) | 8.21 µM | 12.5 µM | 10.3 µM | > 100 µM | 9.58 µM | > 100 µM | 8.22 µM | > 100 µM | 15.2 | 14.6 |  |  |  |  |  |  |  |  |  | 
2 | C=CCCC1(CCP(=O)(c2ccccc2)c2ccccc2)OCCO1 | > 100 µM | > 100 µM | > 100 µM | > 100 µM | > 100 µM | > 100 µM | > 100 µM | > 100 µM | > 100 | > 100 |  |  |  |  |  |  |  |  |  | 
3 | COC(=O)N/N=C(\c1nc2ccc(Cl)cc2[nH]c1=O)C(O)c1ccc([N+](=O)[O-])cc1 (stereo unspecified) | > 100 µM | > 100 µM | > 100 µM | > 100 µM | > 100 µM | > 100 µM | > 100 µM | > 100 µM | > 100 | > 100 |  |  |  |  |  |  |  |  |  | 
4 | O=NNc1nc(-c2ccccn2)nc2ccccc12 | > 100 µM | > 100 µM | 18.7 µM | > 100 µM | > 100 µM | 48.1 µM | 22 µM | > 100 µM | 41 | > 100 |  |  |  |  |  |  |  |  |  | 
5 | Cc1c(N)nc(C2CC(=O)N2CC(N)C(N)=O)nc1C(=O)NC(C(=O)NC(C)C(O)C(C)C(=O)NC(C(=O)NCCc1nc(-c2nc(C(=O)NCCNCC(C)O)cs2)cs1)C(C)O)C(OC1OC(CO)C(O)C(O)C1OC1OC(CO)C(O)C(OC(N)=O)C1O)c1cnc[nH]1 (stereo unspecified) | 50 µM and > 100 µM | 50 µM and 13.6 µM | 50 µM and > 100 µM | 11.6 µM and 17.9 µM | > 100 µM | 6.25 µM and 0.914 µM | 50 µM and 23.8 µM | 50 µM and > 100 µM | > 100 | > 100 | 13.6 | 0.208 | 33.1 | 0.644 | > 50 | 0.188 | 7.91 | 13.4 | > 50 | 
6 | O=C(Nc1ccccc1)Oc1ccccc1C1CCCCC1 | > 100 µM | 60 µM | 51.6 µM | 26.9 µM | > 100 µM | 59.6 µM | 56.7 µM | > 100 µM | 81.5 | 58.1 |  |  |  |  |  |  |  |  |  | 
7 | Oc1ccc(/C=N/Nc2nnc(N/N=C/c3ccc(O)cc3O)c3ccccc23)c(O)c1 | 7.19 µM | 1.76 µM | 7.2 µM | 0.744 µM and 3.19 µM | 0.8 µM and 1.54 µM | 0.793 µM and 2.02 µM | 1.53 µM | 3.24 µM | 2.42 | 5.26 |  | 0.414 | 1.76 | 0.413 | 0.375 | 0.509 | 0.358 | 0.493 | 0.552 | 0.446
8 | O=C(Nc1cccc(C(F)(F)F)c1)Nc1ccc(OCc2nnc(-c3ccccc3)o2)c(F)c1 | 35.5 µM | 15.3 µM | 58.5 µM | 21.3 µM | 12.8 µM | 18 µM | 62.8 µM | 26.6 µM | 59.8 | 66.5 | 4.4 | 3.61 | 5.08 | 5.71 | 2.43 | 3.4 | 7.18 | 5.5 | 10.3 | 6.4
9 | COc1cccc2c(Nc3ccc(C(=O)NCCN4CCNCC4)cc3)cc(-c3ccccc3)nc12 | > 100 µM | > 100 µM | > 100 µM | > 100 µM | > 100 µM | > 100 µM | 38.7 µM | > 100 µM | > 100 | 64.7 | 53.1 | 35.1 | 20.7 | 31 | 30.8 | > 100 | 20.1 | 32.1 | 19 | 49.2
10 | CN(C)c1ccc(/C=C2\Cc3ccccc3C2=O)cc1Br | > 100 µM | > 100 µM | > 100 µM | 76.6 µM | > 100 µM | > 100 µM | > 100 µM | > 100 µM | > 100 | > 100 |  |  |  |  |  |  |  |  |  | 
11 | CC(=O)Nc1ccc(C(=O)COc2cccc(/C=C3\CCc4ccccc4C3=O)c2)cc1 | 51.7 µM | 37.1 µM | > 100 µM | 11 µM | 18.1 µM | 60.3 µM | 34 µM | 99.2 µM | 32.2 | 37.8 | 17.4 | 16.1 | 18.7 | 2.9 | 4.92 | 24 | 14.4 | 21.1 | 20.3 | 17.7
12 | Cn1c(=O)c(Oc2ccc(F)cc2F)cc2cnc(NC3CCC(O)CC3)nc21 (stereo unspecified) | > 25 µM | > 25 µM | > 25 µM | > 25 µM | > 25 µM | > 25 µM | > 25 µM | > 25 µM | > 25 | > 25 | > 25 | > 25 | > 25 | > 25 | > 25 | > 25 | > 25 | > 25 | > 25 | > 25
13 | CCC(=C(c1ccc(OCCN(CC)CC)cc1)c1ccc(OCCN(CC)CC)cc1)c1ccc(Cl)cc1 | 1.09 µM | 1.17 µM | 1.15 µM | 1.06 µM | 1.18 µM | 1.28 µM | 1.11 µM | 1.15 µM | 1.02 | 1.09 | 0.584 | 0.619 | 0.51 | 0.593 | 0.611 | 0.598 | 0.585 | 0.618 | 0.592 | 0.532
14 | Cc1cc(C2(c3cc(C)c(O)c4ncccc34)OC(=O)c3ccccc32)c2cccnc2c1O |  | 0.203 µM | > 100 µM | 0.0574 µM | > 100 µM | > 100 µM |  | 7.94 µM and 21.9 µM | > 100 | > 100 | 0.0365 |  | 0.106 |  |  | 0.643 | 0.0162 |  | > 100 | 
15 | OCCn1c(-c2ccncc2)c(-c2ccc(F)cc2)c2ncccc21 | > 25 µM | > 25 µM | > 25 µM | > 25 µM | > 25 µM | > 25 µM | > 25 µM | > 25 µM | > 25 | > 25 | > 25 | > 25 | > 25 | > 25 | > 25 | > 25 | > 25 | > 25 | > 25 | > 25
